According to publication PMC4354951 (European journal of medicinal chemistry, 2008):

Assays:
[1] = pH 1.4, 37 °C ref 30; cited from earlier work
perfused rat pancreas = perfused rat pancreas ref 31, cited from earlier work
[2] = physiological pH ref 30; cited from earlier work
P2Y2R = conditions: cited from earlier work
ecto-5′-nucleotidases = conditions: muscle strip preparations, 60 min incubation ref 21; cited from earlier work
P2Y1R = conditions: cited from earlier work
P2X1R = conditions: cited from earlier work
P2X2/3Rs = conditions: cited from earlier work
[3] = tested on: 1321N1 astrocytoma and C6 glioma cells; conditions: via NPPs and CD73 ref 39; cited from earlier work
[4] = Chemical hydrolysis under gastric juice-like conditions; assay type: physicochemical; conditions: pH 1.4, 37 °C
[5] = Stability in human blood serum, Method A; assay type: in vitro ADME; conditions: half-life vs ATP
human NTPDase1 = target: T1, human NTPDase1 (Homo sapiens, UniProt P49961); experiment: Hydrolysis by NTPDase1; assay type: biochemical; conditions: 100 μM substrate; relative to ATP hydrolysis (100%)
T1 sequence (P49961 1-510): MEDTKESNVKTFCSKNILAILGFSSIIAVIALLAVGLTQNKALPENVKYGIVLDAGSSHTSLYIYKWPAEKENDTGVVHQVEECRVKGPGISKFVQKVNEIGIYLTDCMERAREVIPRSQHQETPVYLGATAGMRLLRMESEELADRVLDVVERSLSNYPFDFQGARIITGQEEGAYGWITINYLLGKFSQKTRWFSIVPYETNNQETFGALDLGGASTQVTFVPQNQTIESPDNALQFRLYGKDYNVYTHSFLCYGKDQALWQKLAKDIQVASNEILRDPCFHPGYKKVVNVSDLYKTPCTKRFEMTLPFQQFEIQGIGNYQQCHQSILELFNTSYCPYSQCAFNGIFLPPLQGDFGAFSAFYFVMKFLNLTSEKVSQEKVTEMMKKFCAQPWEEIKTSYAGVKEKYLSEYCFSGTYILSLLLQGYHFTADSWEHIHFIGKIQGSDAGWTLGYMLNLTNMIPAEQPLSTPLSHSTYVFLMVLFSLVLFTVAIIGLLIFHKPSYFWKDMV

human NTPDase3 = target: T2, human NTPDase3 (Homo sapiens, UniProt O75355); experiment: Hydrolysis by NTPDase3; assay type: biochemical; conditions: 100 μM substrate; relative to ATP hydrolysis (100%)
T2 sequence (O75355 1-529): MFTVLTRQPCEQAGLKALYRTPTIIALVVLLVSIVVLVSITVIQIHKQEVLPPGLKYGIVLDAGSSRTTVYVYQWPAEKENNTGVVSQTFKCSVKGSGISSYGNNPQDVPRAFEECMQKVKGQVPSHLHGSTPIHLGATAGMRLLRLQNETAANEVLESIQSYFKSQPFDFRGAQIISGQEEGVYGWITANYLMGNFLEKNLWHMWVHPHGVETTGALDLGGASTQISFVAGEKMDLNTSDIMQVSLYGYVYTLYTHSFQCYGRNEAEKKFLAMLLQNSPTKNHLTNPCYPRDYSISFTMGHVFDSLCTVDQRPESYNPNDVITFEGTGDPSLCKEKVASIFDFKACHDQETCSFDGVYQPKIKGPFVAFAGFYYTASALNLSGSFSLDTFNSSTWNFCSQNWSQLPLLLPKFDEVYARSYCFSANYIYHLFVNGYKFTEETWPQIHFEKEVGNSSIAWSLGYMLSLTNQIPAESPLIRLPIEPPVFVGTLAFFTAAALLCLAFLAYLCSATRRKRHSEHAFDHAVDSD

human NTPDase8 = target: T3, human NTPDase8 (Homo sapiens, UniProt Q5MY95); experiment: Hydrolysis by NTPDase8; assay type: biochemical; conditions: 100 μM substrate; relative to ATP hydrolysis (100%)
T3 sequence (Q5MY95 1-495): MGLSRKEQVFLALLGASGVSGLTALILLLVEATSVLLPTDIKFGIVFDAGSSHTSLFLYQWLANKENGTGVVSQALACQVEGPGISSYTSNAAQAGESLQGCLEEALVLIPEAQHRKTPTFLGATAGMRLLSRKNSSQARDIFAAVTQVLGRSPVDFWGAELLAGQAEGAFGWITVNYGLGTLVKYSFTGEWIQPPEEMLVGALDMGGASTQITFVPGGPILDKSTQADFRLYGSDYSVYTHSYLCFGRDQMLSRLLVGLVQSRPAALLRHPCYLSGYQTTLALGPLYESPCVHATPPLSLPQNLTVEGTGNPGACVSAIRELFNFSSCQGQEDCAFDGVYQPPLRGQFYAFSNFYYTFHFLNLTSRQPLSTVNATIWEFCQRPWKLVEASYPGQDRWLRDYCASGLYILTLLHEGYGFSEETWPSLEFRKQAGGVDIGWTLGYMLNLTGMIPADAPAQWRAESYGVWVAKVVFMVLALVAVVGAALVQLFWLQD

turkey P2Y1 receptor = turkey P2Y1 receptor (Meleagris gallopavo, UniProt P49652); assay type: cell-based; conditions: 1321N1 cell transfectants
human P2Y2 receptor = human P2Y2 receptor (Homo sapiens, UniProt P41231); experiment: Increase in [Ca2+]i in 1321N1 astrocytoma cells expressing P2Y2 receptor; assay type: cell-based
human P2Y4 receptor = human P2Y4 receptor (Homo sapiens, UniProt P51582); experiment: Increase in [Ca2+]i in 1321N1 astrocytoma cells expressing P2Y4 receptor; assay type: cell-based
rat P2Y6 receptor = rat P2Y6 receptor (Rattus norvegicus, UniProt Q63371); experiment: Increase in [Ca2+]i in 1321N1 astrocytoma cells expressing P2Y6 receptor; assay type: cell-based
[6] = pKa and degree of ionization of phosphate/phosphonate; assay type: physicochemical; conditions: physiological conditions, pH 7.4

human P2Y2 receptor, sequence (P41231 whole entry): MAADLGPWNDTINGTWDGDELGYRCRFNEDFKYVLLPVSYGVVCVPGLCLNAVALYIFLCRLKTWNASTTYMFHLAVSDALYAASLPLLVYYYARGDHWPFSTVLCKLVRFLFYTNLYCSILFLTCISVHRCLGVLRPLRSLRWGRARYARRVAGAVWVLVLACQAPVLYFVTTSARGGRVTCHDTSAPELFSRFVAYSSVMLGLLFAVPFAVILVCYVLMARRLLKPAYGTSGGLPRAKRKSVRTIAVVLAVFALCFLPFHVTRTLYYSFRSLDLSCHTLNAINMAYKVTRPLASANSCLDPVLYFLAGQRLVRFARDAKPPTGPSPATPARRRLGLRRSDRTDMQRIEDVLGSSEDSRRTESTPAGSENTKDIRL
rat P2Y6 receptor, sequence (Q63371 whole entry): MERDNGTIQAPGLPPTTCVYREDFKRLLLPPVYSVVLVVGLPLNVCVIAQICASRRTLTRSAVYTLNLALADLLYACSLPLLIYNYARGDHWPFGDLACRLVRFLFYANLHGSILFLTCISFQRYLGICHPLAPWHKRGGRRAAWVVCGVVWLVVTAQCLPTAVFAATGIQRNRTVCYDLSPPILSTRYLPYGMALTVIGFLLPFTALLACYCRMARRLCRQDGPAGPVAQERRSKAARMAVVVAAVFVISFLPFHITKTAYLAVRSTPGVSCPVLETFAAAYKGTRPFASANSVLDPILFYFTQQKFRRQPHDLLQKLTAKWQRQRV
human P2Y4 receptor, sequence (P51582 whole entry): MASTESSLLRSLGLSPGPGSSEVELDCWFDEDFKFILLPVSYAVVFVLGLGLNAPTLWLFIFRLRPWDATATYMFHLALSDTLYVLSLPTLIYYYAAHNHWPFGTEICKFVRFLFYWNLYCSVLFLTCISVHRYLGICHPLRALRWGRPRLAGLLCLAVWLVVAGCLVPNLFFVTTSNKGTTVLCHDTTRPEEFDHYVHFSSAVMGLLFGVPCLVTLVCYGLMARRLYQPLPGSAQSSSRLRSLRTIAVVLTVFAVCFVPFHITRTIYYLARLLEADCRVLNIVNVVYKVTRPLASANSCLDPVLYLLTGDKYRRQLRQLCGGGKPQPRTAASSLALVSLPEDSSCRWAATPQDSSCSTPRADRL
turkey P2Y1 receptor, sequence (P49652 whole entry): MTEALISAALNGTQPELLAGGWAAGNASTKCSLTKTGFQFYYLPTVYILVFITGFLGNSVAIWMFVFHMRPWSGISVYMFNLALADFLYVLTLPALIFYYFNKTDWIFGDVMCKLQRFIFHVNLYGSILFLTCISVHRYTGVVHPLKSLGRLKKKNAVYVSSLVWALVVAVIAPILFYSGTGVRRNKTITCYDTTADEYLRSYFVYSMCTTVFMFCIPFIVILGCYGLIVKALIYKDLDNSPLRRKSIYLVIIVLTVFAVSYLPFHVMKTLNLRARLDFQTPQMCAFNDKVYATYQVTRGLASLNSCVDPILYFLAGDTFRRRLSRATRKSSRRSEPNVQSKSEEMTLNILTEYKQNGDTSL

In the case of 2-MeS–ATP-α-B [compound 1], the “t1/2 of acidic hydrolysis” value [1] is given as 5.9 h, the “enhancement of insulin secretion as compared to basal secretion” value (perfused rat pancreas) is given as “ninefold” and the EC50 (perfused rat pancreas; read-out: EC50 of insulin secretion) is given as 0.028 µM. For the same molecule, the “t1/2 at physiological pH” value [2] was 1395 h and the “activity at P2Y2R” value (P2Y2R) was “very weak agonists”.

In the case of Nc1ncnc2c1ncn2[C@@H]1O[C@H](COP(=O)(O)OP(=O)(O)CP(=O)(O)O)[C@@H](O)[C@H]1O [β,γ-CH2–ATP], the “degradation by ecto-5′-nucleotidases” value (ecto-5′-nucleotidases) is given as “no degradation”, the “activation of P2Y1Rs” value (P2Y1R) is given as “did not activate” and the “antagonism at P2Y1R” value (P2Y1R; responses elicited by 2-MeS–ADP ref 48) is given as “weak competitive antagonist”. For the same molecule, the “activity at P2X1R” value (P2X1R) was “P2X1R agonist”, the “activity at P2X2/3Rs” value (P2X2/3Rs) was “weak agonist” and the “metabolism in cells” value [3] was “rapidly metabolized to adenosine”.

With CSc1nc(N)c2ncn([C@@H]3O[C@H](COP(=O)(O)OP(=O)(O)CP(=O)(O)O)[C@@H](O)[C@H]3O)c2n1 [compound 2, 2-MeS–adenosine-5′-O-triphosphate-β,γ-CH2] the “improvement of chemical stability as compared to 1” value [4] was about 11 fold, the “enhancement of the metabolic stability of ATP” value [5] was at least 3.5 fold and the “Relative activity of NTPDase1” value (human NTPDase1) was 7–8%. The “Relative activity of NTPDase3” value (human NTPDase3) was 7–8%, the “Relative activity of NTPDase8” value (human NTPDase8) was 7–8% and the “agonist activity at P2Y1R” value (turkey P2Y1 receptor) was “potent P2Y1R agonists”. The EC50 (human P2Y2 receptor) was over 100 µM, the “agonist activity at P2Y2R” value (human P2Y2 receptor; 1321N1 cell transfectants) was “inactivity” and the EC50 (human P2Y4 receptor) was over 100 µM. For the same molecule, the EC50 (rat P2Y6 receptor) was over 100 µM, the fraction ionized [6] was 9% and the “degradation by ecto-5′-nucleotidases” value (ecto-5′-nucleotidases) was “no degradation”.
